Patent publication US7488476B2, “B-cell epitope peptides of HSP 65, DNA encoding said peptides, antibodies directed against said peptides and the different uses thereof in the treatment of inflammatory and autoimmune diseases” (priority 1998, dated 2009)

Legend:
DBA/1 mice = assay: Modulation of collagen arthritis in DBA/1 mice; assay type: in vivo, mouse; settings: active vaccination
Lewis rats [1] = assay: Anti HSP antibodies in Lewis rats immunized with HSP peptides (ELISA); assay type: in vivo, rat; settings: 100 μg peptide in PBS, 3 times IP
Procedure: ELISA: Flat-bottomed 96 well plates (Corning) were coated with mammalian HSP 60 or Mycobacterial HSP 65 (10 μg/ml) in carbonate buffer pH 9.6 overnight at 4° C.
HSP peptides were attached to plates pre-treated with glutaraldehyde according to Kasprzyk et al.. Shortly, plates were coated with 100 μl/well of 5% w/v of glutaraldehyde in PBS for 1 hour at room temp. Plates were washed thoroughly with PBS and peptides (1 μg/100 μl) were added to each well, incubated overnight at 4° C. Plates were shaken dry and blocked with BSA 1% in PBS.
Plates coated with either HSP or peptides were washed again and incubated with rat sera diluted 1:100 with PBS-Tween 0.01% for 90 min. at room temp. After re-washing the plates were incubated with Goat anti rat IgG or IgM conjugated to alkaline-phosphatase for 60 min. at room temp. […] Optical density was measured photometrically at 405 nm.
Modulation of AA by mycobacterial and mammalian HSP peltides: HSP 65 derived peptides were tested for their ability to modulate the appearance or severity of AA in Lewis rats. Rats were immunized with 100 μg of each peptide in PBS, three weeks (3W), 2W and 1W before induction of AA by MT. Control rats received PBS. Rats were bled for testing antibody presence before injection of MT and 30 days post MT injection.
To test whether active immunization with bacterial or mammalian HSP peptides that are recognized by protective immunoglobulins can induce protection against AA, Lewis rats were immunized with the mycobacterial peptides 6, 7, 21, 31, 36, 45, 84, that bound antibodies from resistant Lewis rats (“protective” peptides), with some non-reactive mycobacterial HSP 65 peptides: peptide 26 (residues 151-166), 28 (residues 163-178) or peptide 70 (residues 415-430), and with the mammalian peptide 5.
Rats were injected 3 times intraperitoneally (IP), with one week intervals between injections before induction of AA with MT.

NOD mice = assay: Peptide 6 immunization of NOD mice: onset of diabetes and antibodies by ELISA; assay type: in vivo, mouse
Procedure: Naive NOD mice were immunized 3 times intradermally (I.D.) with 100 μg peptide 6 (SEQ ID: No. 2) in CFA and IFA. Control mice received PBS. Mice were monitored for the onset of diabetes by glucose test and for anti-peptide 6 or anti-HSP 65 antibodies by ELISA. Mice immunized with the peptide developed anti-peptide 6 as well as anti-HSP 65 antibodies as detected by OD (1.52±0.07 and 1.43±0.13 respectively) in comparison to CFA immunized mice (0.05±0.01 and 0.01±0.01) and control mice (0.09±0.06 and 0.16±0.16).
To test whether active immunization with the bacterial HSP peptide 6 (SEQ ID: No. 2) can induce protective immunoglobulins against other autoimmune disorders, for instance autoimmune diabetes, NOD mice were immunized with the mycobacterial peptide 6 (“protective” peptide). Naive NOD mice were immunized 3 times I.D. with either 100 μg peptide 6 in CFA and IFA or PBS (control). Mice were monitored for the onset of diabetes by glucose test (appearance of hyperglycemia) and for anti-peptide 6 or […] antibodies by ELISA. Mice immunized with the peptide developed anti-peptide 6 as well as anti-HSP 65 antibodies as reflected by OD (1.52±0.07 and 1.43±0.13 respectively) in comparison to CFA immunized mice (0.05±0.Oland 0.01±0.01) and control mice (0.09±0.06 and 0.16±0.16).

Lewis rats [2] = assay: Modulation of Adjuvant Arthritis by pre-immunization with HSP peptides; assay type: in vivo, rat; settings: 3 IP injections at one week intervals before AA induction with MT, FIG. 4
rat immunoglobulins = assay: ELISA: antibodies of rat sera to Mycobacterial HSP 65 and its peptides; assay type: binding
[3] = NOD mice immunized 3 times I.D. with 100 μg peptide 6 in CFA and IFA, ELISA

Sequence: GPKGRNVVLEKKWGAP [Peptide 6]
- murine collagen arthritis (DBA/1 mice): suppressed significantly
- Anti HSP Antibodies in Immunized Lewis Rats, Antigen M5 (Lewis rats [1]; antigen M5): − (<O. 15 = −)
- Anti HSP Antibodies in Immunized Lewis Rats, Antigen MT-HSP 65 (Lewis rats [1]; antigen MT-HSP 65): ++ (0.46-0.75 = ++)
- Anti HSP Antibodies in Immunized Lewis Rats, Antigen 6 (Lewis rats [1]; antigen peptide 6): ++ (0.46-0.75 = ++)
- Anti HSP Antibodies in Immunized Lewis Rats, Antigen 7 (Lewis rats [1]; antigen peptide 7): − (<O. 15 = −)
- anti-HSP 65 antibodies (NOD mice; [3]): 1.43±0.13 OD
- anti-peptide 6 antibodies (NOD mice; [3]): 1.52±0.07 OD
- appearance of the diabetic symptoms (NOD mice; NOD mice, glucose test, FIG. 7): clearly delayed
- number of sick mice (NOD mice; NOD mice, peptide-6 vaccinated group): significantly lowered
- diabetes disease severity (NOD mice; NOD mice, FIG. 7): significantly reduced
- AA disease severity after pre-immunization (Lewis rats [2]): significant suppression of disease severity
- Antibodies to Mycobacterial HSP 65 Peptides (rat immunoglobulins; strain BN-6w): + (0.16-0.45 = +)
- Antibodies to Mycobacterial HSP 65 Peptides (rat immunoglobulins; strain Lew-4m): + (0.16-0.45 = +)
- Antibodies to Mycobacterial HSP 65 Peptides (rat immunoglobulins; strain Lew-6w): − (<O. 15 = −)
- Antibodies to Mycobacterial HSP 65 Peptides (rat immunoglobulins; strain Lew-9m): + (0.16-0.45 = +)
- Antibodies to Mycobacterial HSP 65 Peptides (rat immunoglobulins; strain Lew-Post AA): +++ (>0.75 = +++)
